Reference: US11395867B2, “Degradable removable implant for the sustained release of an active compound” (Janssen Sciences Ireland Unlimited Company, priority 2009, dated 2022)
Values joined by “and” are separate entries in the source; they are usually repeats but may differ in a detail not shown here. Equal values may be shown once.

Assays:
[1] = In vivo testing of electrostatically spun tube containing two sets of microparticles, plasma concentrations; design: species or system Sprague-Dawley rats; conditions: rat, subcutaneous electrospun tube implant, TMC278 139 mg/kg, compound 1 64 mg/kg, individual animals 1-4
Procedure: Tubes were electrostatically spun from a 100 mg/ml polydioxanone (IVHFIP=1.99 dl/g) hexafluoroisopropanol solution. A 4 mm mandrel was used to provide a consistent inner diameter of 4 mm. The rotational speed of the mandrel was 400 rpm, the charging voltage range was 20/−10 kV, and the pump flow rate was 10 ml/hour. The resulting wall thickness was 500 microns. Fiber diameters were 1-2 microns and the average pore size formed from the network of fibers was 20 microns as determined by Scanning Electron Microscopy.
The microparticles were prepared by the spinning disc method using a polymer/acetone solution with a concentration ranging from 3-4% (w/w). Two sets of microparticles were prepared. The target composition of one set was 70% (w/w) TMC278 and 30% (w/w) PLGA 50/50 (Lakeshore Biomaterials IVHFIP=0.79 dl/g). The target composition of the other set of microparticles was 70% (w/w) of compound 1 (=compound 14 of WO01/25240) and 30% (w/w) PLGA 50/50 (Lakeshore Biomaterials IVHFIP=0.18 dl/g). This compound 1 has the following structure and will be referred to hereinafter as compound 1:
Approximately 133 mg of the microparticle mixture was introduced into the electrostatically prepared tubes using a spatula.
(§1) The prepared tubes were implanted into the subcutaneous space on the back of four male Sprague-Dawley rats weighing between 250-350 grams. The dose of TMC278 was 139 mg/kg and the dose of compound 1 was 64 mg/kg. The tail vein was sampled at pre-determined time points. Blood samples were immediately centrifuged to extract the plasma, plasma was analyzed for compound 1 and TMC278 by LC/MS/MS. The lower limit of quantitation was 0.4 ng/ml and 2 ng/ml for TMC278 and compound 1, respectively.

[2] = In vivo testing of laser drilled melt extruded tube containing two sets of microparticles, plasma concentrations; conditions: rat, subcutaneous laser drilled extruded tube implant, TMC278 139 mg/kg, compound 1 64 mg/kg, individual animals 1-4
Procedure: Tubes with inner diameter of 4.5 mm were extruded from polydioxanone (IVHFIP=1.99 dl/g) using a ¾ inch single screw extruder fitted with a tube die. The dimensions of the tube were monitored using an in-line laser diameter measuring system and maintained using a puller. Following the extrusion the tubes were laser drilled. In preparation for the laser drilling a mask design was prepared that located the holes 260 microns apart from one another. Scanning electron microscopy was used to size the inner and outer diameter of the holes. […] The microparticles were prepared as described in Example 9. Approximately 133 mg of the microparticle mixture was introduced into the tubes.
as §1, with “plasma, and” for “plasma,”, “quantitation for TMC278 and compound 1” for “quantitation”, “2.0 ng/ml,” for “2 ng/ml for TMC278 and compound 1,”

[3] = In vivo testing of laser drilled melt extruded tube containing two sets of microparticles formulated with F108, plasma concentrations; design: species or system Sprague-Dawley rats; conditions: rat, subcutaneous laser drilled extruded tube implant, TMC278 109 mg/kg, compound 1 78 mg/kg, individual animals 1-4
Procedure: The laser drilled melt extruded tube was prepared as described above in example 10. The microparticles were prepared by the spinning disc method using a 3% (w/w) polymer/acetone solution. Two sets of microparticles were prepared. The target composition of one set was 70% (w/w) TMC278, 20% (w/w) PLGA 50/50 (Lakeshore Biomaterials IVHFIP=0.79 dl/g), and 10% (w/w) F108 (BASF). The target composition of the other set of microparticles was 70% (w/w) compound 1, 20% (w/w) PLGA 50/50 (Lakeshore Biomaterials IVHFIP=0.18 dl/g), and 10% (w/w) F108. The F108 was added to the polymer solution.
The size range of the microparticles was determined by randomly selecting a sample of microparticles and placing them on the stage of an optical microscope and using a ruler to measure the various sizes of the microparticles in the randomly selected sample. The size range of the TMC278 and compound 1 microparticles was 10-100 microns and 20-100 microns, respectively. Microparticles were mixed as described in example 9. Approximately 133 mg of the microparticle mixture was introduced into tubes using a spatula to transfer the contents.
as §1, with “TMC278” for “TMC278 was 139 mg/kg”, “and” for “and the dose of”, “109 mg/kg and 78 mg/kg, respectively.” for “64 mg/kg.”, “quantitation for TMC278 and compound 1” for “quantitation”, “ng/ml,” for “ng/ml for TMC278 and compound 1,”

Compound: CC(C)CN(C[C@@H](O)[C@H](Cc1ccccc1)NC(=O)O[C@H]1CO[C@H]2OCC[C@H]21)S(=O)(=O)c1ccc2c(c1)OCO2 [compound 1]
- plasma concentration ([1]; 3 hour): 2.37 ng/mL and 4.08 ng/mL and 4.46 ng/mL
- plasma concentration ([1]; 1 day): 12.6 ng/mL and 9.95 ng/mL and 10.5 ng/mL
- plasma concentration ([1]; 3 day): 15.1 ng/mL and 14.2 ng/mL and 15.9 ng/mL
- plasma concentration ([1]; 7 day): 13.6 ng/mL and 13.2 ng/mL and 13.0 ng/mL
- plasma concentration ([1]; 14 day): 7.17 ng/mL and 12.7 ng/mL and 16.6 ng/mL and 9.89 ng/mL
- plasma concentration ([1]; 28 day): 6.07 ng/mL and 8.86 ng/mL and 12.4 ng/mL and 10.5 ng/mL
- plasma concentration ([1]; 35 day): 5.75 ng/mL and 12.0 ng/mL and 20.0 ng/mL and 11.6 ng/mL
- concentration at 3 h ([1]; male, Sprague-Dawley, plasma, subcutaneous, 3 hour): 3.93 ng/mL
- concentration at 1 day ([1]; male, Sprague-Dawley, plasma, subcutaneous, 1 day): 6.39 ng/mL
- concentration at 3 day ([1]; male, Sprague-Dawley, plasma, subcutaneous, 3 day): 10 ng/mL
- concentration at 7 day ([1]; male, Sprague-Dawley, plasma, subcutaneous, 7 day): 9.95 ng/mL
- plasma concentration ([2]; 3 hour): 2.88 ng/mL and 16.4 ng/mL and 27.0 ng/mL and 16.5 ng/mL
- plasma concentration ([2]; 1 day): <2 ng/mL and 4.20 ng/mL and 9.25 ng/mL and 3.71 ng/mL
- plasma concentration ([2]; 3 day): <2 ng/ml (2×) and 3.35 ng/ml and 6.06 ng/ml
- plasma concentration ([2]; 7 day): 3.44 ng/mL and 3.13 ng/mL and <2 ng/mL
- plasma concentration ([2]; 14 day): 2.70 ng/mL and 2.26 ng/mL and 3.66 ng/mL
- plasma concentration ([2]; 28 day): <2 ng/mL and 4.32 ng/mL and 13.0 ng/mL and 4.30 ng/mL
- plasma concentration ([2]; 35 day): <2 ng/mL and 3.56 ng/mL and 13.0 ng/mL and 2.57 ng/mL
- concentration at 7 day ([2]; male, in vivo, 7 day): < 2 ng/mL
- concentration at 14 day ([2]; male, in vivo, 14 day): < 2 ng/mL
- plasma concentration ([3]; 3 hour): 59.1 ng/mL and 26.9 ng/mL and 39.2 ng/mL and 17.3 ng/mL
- plasma concentration ([3]; 1 day): 6.13 ng/mL and 2.54 ng/mL and 4.36 ng/mL and 2.98 ng/mL
- plasma concentration ([3]; 3 day): <2 ng/mL
- plasma concentration ([3]; 7 day): 2.89 ng/ml and <2 ng/ml (2×)
- plasma concentration ([3]; 14 day): 8.25 ng/ml and <2 ng/ml (2×) and 6.27 ng/ml
- plasma concentration ([3]; 28 day): 22.1 ng/mL and 6.03 ng/mL and 12.3 ng/mL and 16.3 ng/mL
- plasma concentration ([3]; 35 day): 13.1 ng/mL and 7.25 ng/mL and 10.7 ng/mL and 15.4 ng/mL
- concentration at 3 day ([3]; male, Sprague-Dawley, plasma, 3 day): 3.36 ng/mL
- concentration at 7 day ([3]; male, Sprague-Dawley, plasma, 7 day): < 2 ng/mL
